PubChem BioAssay (NCI)
“And” between values parts separate entries of the source, which are not always exact repeats. Equal values may be shown once.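 Exposure lasted 48 hours, with cells grown in 96-well plates and compounds tested at five concentrations. GI50 marks 50% less growth. TGI marks complete inhibition of growth.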

Assays:
Experiment in all cases: NCI tumour cell line growth inhibition, 48 h
RXF-631 renal = test system: RXF-631 renal
DMS 114 small cell lung = test system: DMS 114 small cell lung
T-47D breast = test system: T-47D breast
M19-MEL melanoma = test system: M19-MEL melanoma
HOP-18 NSCLC = test system: HOP-18 NSCLC
KM20L2 colon = test system: KM20L2 colon
SNB-78 CNS = test system: SNB-78 CNS
NCI/ADR-RES ovarian = test system: NCI/ADR-RES ovarian
P388/ADR leukemia = test system: P388/ADR leukemia
P388 leukemia = test system: P388 leukemia
SN12K1 renal = test system: SN12K1 renal
MDA-N = test system: MDA-N

| Structure (SMILES) | TGI (RXF-631 renal) [µM] | TGI (DMS 114 small cell lung) | TGI (T-47D breast) [µM] | TGI (M19-MEL melanoma) [µM] | TGI (HOP-18 NSCLC) | TGI (KM20L2 colon) | TGI (SNB-78 CNS) | TGI (NCI/ADR-RES ovarian) [µM] | TGI (P388/ADR leukemia) [µM] | GI50 (HOP-18 NSCLC) [µM] | GI50 (KM20L2 colon) [µM] | GI50 (SNB-78 CNS) | TGI (P388 leukemia) [µM] | TGI (SN12K1 renal) [µM] | TGI (MDA-N) [µM] |
| --- | --- | --- | --- | --- | --- | --- | --- | --- | --- | --- | --- | --- | --- | --- | --- |
| Cc1cc(Cl)ccc1Nc1nc2c(s1)C(=O)c1ccccc1C2=O | 20.2 | 4.85 µM | 7.06 | 2.06 | 12.5 µM | 39.4 µM | > 80.9 µM |  |  |  |  |  |  |  |  |
| CCOC(=O)Cn1c(=O)[nH]c(=O)c2[nH]cnc21 | > 100 | > 100 µM |  | > 100 | > 100 µM | > 100 µM | > 100 µM |  |  |  |  |  |  |  |  |
| COc1ccc(NC(=O)C2=CC(=O)c3ccc(O)cc3C2=O)c(OC)c1 | > 100 | > 100 µM |  | > 100 | > 100 µM | > 100 µM | > 100 µM |  |  |  |  |  |  |  |  |
| COC1C(C)OC(OC2CC(C)(O)Cc3cc4c(c(O)c32)C(=O)c2c(O)cc3c(c2C4=O)OC2OC3(C)C(O)C(N(C)C)C2O)C(OC)C1(C)OC (stereo unspecified) | 7.14 | 0.0635 µM and 0.0446 µM | 0.000313 |  | 0.919 µM and 3.11 µM | 0.571 µM and 1.6 µM | 1.78 µM and 2.57 µM | 21.2 | 7.1 | 0.157 | 0.0651 | 0.00657 µM and 0.0327 µM | 0.51 | 0.06 | 0.00187 |
| C/C(CC(=O)Nc1cccc(C)c1C)=N\NC(N)=S | > 100 | > 100 µM |  | > 100 | > 100 µM | > 100 µM | > 100 µM |  |  |  |  |  |  |  |  |
| Cc1ccc(S(=O)(=O)OC2CSSCC2OS(=O)(=O)c2ccc(C)cc2)cc1 (stereo unspecified) | 26.5 | 26.4 µM |  | 26.3 | 31.1 µM | 30.4 µM | 37 µM |  |  |  |  |  |  |  |  |
| O=Cc1cn(S(=O)(=O)c2ccccc2)c2ccccc12 | > 100 | 62.9 µM |  | > 100 | > 100 µM | > 100 µM | > 100 µM |  |  |  |  |  |  |  |  |
